In patent US12594276B2, “Inhibitors of human immunodeficiency virus replication” (ViiV Healthcare UK (No.5) Limited, priority 2024, dated 2026):
Where two headings read alike, the source gives them in different places.

Experiments:
[1] = Compound cytotoxicity, XTT-based colorimetric assay; type: cell-based; conditions: human
In short: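 CC50 derived from XTT colorimetric signal measured on day 4 in MT2 cells that were not infected. All other steps followed the antiviral assay protocol.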

[2] = test system: recombinant NL4-3 virus (nef section replaced with Renilla luciferase gene) in MT-2 cells; assay: HIV cell culture assay (antiviral activity, luciferase readout); type: cell-based; conditions: Renilla, NL43, MT-2 cells infected for 4-5 days with recombinant NL4-3 Renilla luciferase virus
In short: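 Reporter virus is produced in 293T cells and its titer set in MT-2 cells by luciferase activity. MT-2 cells are then infected in the presence of serially diluted compound for 4-5 days. Luciferase is quantified and EC50 fitted to the median effect equation.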

[3] = uninfected MT2 cells, day 4, XTT, read-out: CC50

SMILES | CC50 at 4 days [1, 3] | EC50 [2] | CC50 at 4 days [1]
CS(=O)(=O)Nc1nn(CCN2CCC(F)(F)CC2)c2c(-n3c([C@H](Cc4cc(F)cc(F)c4)NC(=O)Cn4nc(C5CC5)c5c4C[C@@H]4C[C@H]54)nc4nc(C5CCC(F)(F)CC5)c(F)cc4c3=O)ccc(Cl)c12 (atropisomer, axis not shown; (P)) [Example 239, N-[(1S)-1-[(3P)-3-{4-chloro-1-[2-(4,4-difluoropiperidin-1-yl)ethyl]-3-methanesulfonamido-1H-indazol-7-yl}-7-(4,4-difluorocyclohexyl)-6-fluoro-4-oxo-3H,4H-pyrido[2,3-d]pyrimidin-2-yl]-2-(3,5-difluorophenyl)ethyl]-2-[(2S,4S)-9-cyclopropyl-7,8-diazatricyclo[4.3.0.0^2,^4]nona-1(6),8-dien-7-yl]acetamide] | > 50 nM | 0.021 nM | 
C[C@@H]1CN(CCn2nc(NS(C)(=O)=O)c3c(Cl)ccc(-n4c([C@H](Cc5cc(F)cc(F)c5)NC(=O)Cn5nc(C6CC6)c6c5C[C@@H]5C[C@H]65)nc5nc(C6CCC(F)(F)CC6)cc(C(F)F)c5c4=O)c32)C[C@H](C)O1 (atropisomer, axis not shown; (P)) [Example 240, N-[(1S)-1-[(3P)-3-(4-chloro-1-{2-[(2R,6S)-2,6-dimethylmorpholin-4-yl]ethyl}-3-methanesulfonamido-1H-indazol-7-yl)-7-(4,4-difluorocyclohexyl)-5-(difluoromethyl)-4-oxo-3H,4H-pyrido[2,3-d]pyrimidin-2-yl]-2-(3,5-difluorophenyl)ethyl]-2-[(2S,4S)-9-cyclopropyl-7,8-diazatricyclo[4.3.0.0^2,^4]nona-1(6),8-dien-7-yl]acetamide] | > 50 nM | 0.026 nM | 
COCCOCCn1nc(NS(C)(=O)=O)c2c(Cl)ccc(-n3c([C@H](Cc4cc(F)cc(F)c4)NC(=O)Cn4nc(C(F)F)c5c4C(F)(F)[C@@H]4C[C@H]54)nc4nc(C5CCC(F)(F)CC5)ccc4c3=O)c21 (atropisomer, axis not shown; (P)) [Example 241, N-[(1S)-1-[(3P)-3-{4-chloro-3-methanesulfonamido-1-[2-(2-methoxyethoxy)ethyl]-1H-indazol-7-yl}-7-(4,4-difluorocyclohexyl)-4-oxo-3H,4H-pyrido[2,3-d]pyrimidin-2-yl]-2-(3,5-difluorophenyl)ethyl]-2-[(2S,4R)-9-(difluoromethyl)-5,5-difluoro-7,8-diazatricyclo[4.3.0.0^2,^4]nona-1(6),8-dien-7-yl]acetamide] | > 50 nM | 0.018 nM | 
Cc1cc(C2CCC(F)(F)CC2)nc2nc([C@H](Cc3cc(F)cc(F)c3)NC(=O)Cn3nc(C4CC4)c4c3C[C@@H]3C[C@H]43)n(-c3ccc(Cl)c4c(NS(C)(=O)=O)nn(CCN5[C@@H]6CC[C@H]5CC(F)(F)C6)c34)c(=O)c12 (atropisomer, axis not shown; (P)) [Example 245] |  | 0.019 nM | > 50 nM
Cc1cc(C2CCC(F)(F)CC2)nc2nc([C@H](Cc3cc(F)cc(F)c3)NC(=O)Cn3nc(C(F)F)c4c3C(F)(F)[C@@H]3C[C@H]43)n(-c3ccc(Cl)c4c(NS(C)(=O)=O)nn(CCN5[C@@H]6CC[C@H]5CC(F)(F)C6)c34)c(=O)c12 (atropisomer, axis not shown; (P)) [Example 246, N-[(1S)-1-[(3P)-3-(4-chloro-1-{2-[(1R,5S)-3,3-difluoro-8-azabicyclo[3.2.1]octan-8-yl]ethyl}-3-methanesulfonamido-1H-indazol-7-yl)-7-(4,4-difluorocyclohexyl)-5-methyl-4-oxo-3H,4H-pyrido[2,3-d]pyrimidin-2-yl]-2-(3,5-difluorophenyl)ethyl]-2-[(2S,4R)-9-(difluoromethyl)-5,5-difluoro-7,8-diazatricyclo[4.3.0.0^2,^4]nona-1(6),8-dien-7-yl]acetamide] |  | 0.028 nM | > 50 nM
